SMILES strings stand for the structures.

The first assay deals with RKN cells. The assay is described as follows: RKN cell profiling assay (cell viability, CellTiter-Glo). The format is cell-based. As to conditions: 96 h, 96 h exposure, read-out: Cell Killing EC50. The method, then:
RKN cells were suspended in assay medium (F-12 medium supplemented with 10% FBS and penicillin/streptomycin) and seeded at 1,000 cells per well (30 μL total volume) in opaque white 384-well plates (Corning). Cells were allowed to adhere for 24 h at 37° C. (95% humidity, 5% CO2) and then exposed to compounds disclosed herein for 72 h, or in the present case, 96 h. DMSO stock solutions of compounds were added to cells using a D300e Digital Dispenser (Tecan). The final DMSO concentration in each well was normalized to 0.5% (v/v) after compound treatment. Cell viability was measured using CellTiter-Glo (Promega). After incubation for 15 min at room temperature, luminescence was measured using a PHERAstar FSX microplate reader (BMG Labtech). Ferroptosis rescue experiments were performed as described previously using cells treated with ferrostatin-1 (fer-1, 1.5 μM) when seeding assay plates. Dose-response data were analyzed to determine EC50 values with GraphPad Prism 9 software using a four-parameter logistic equation or CDD Vault (Collaborative Drug Discovery) using the Levenberg-Marquardt algorithm.
What is called EC50 is the concentration at which the effect is half-maximal. As to `N=S(=O)(CCc1cccc(Cl)c1F)CC[C@H](N)C(=O)O` (some centres unmarked) [Compound 28], the concentration for a half-maximal effect (EC50) was at least 1000 µM.

Turning to `CC(C)(C)CCS(=N)(=O)CC[C@H](N)C(=O)OC(C)(C)C` (some centres unmarked) [Compound 96], the EC50 was at least 1000 µM.

On to `CCCCS(=N)(=O)CC[C@H](N)C(=O)NC` (some centres unmarked) [Compound 107], for which the EC50 is at least 1000 µM.

Consider `CC(C)(C)CCS(=N)(=O)CC[C@H](N)C(=O)Nc1nccs1` (some centres unmarked) [Compound 121], for which the EC50 is at least 1000 µM.

Turning to `N[C@@H](CC[S@@](=O)(CCCC(F)(F)F)=NP(=O)(O)O)C(=O)O` [Compound 138, (S)-2-amino-4-((S)-4,4,4-trifluoro-N-phosphonobutylsulfonimidoyl)butanoic acid], the EC50 is under 1000 µM.

Take `CCCCS(=N)(=O)CC[C@H](N)c1nnn[nH]1` (stereo partly drawn) [Compound 200, (1S)-3-(butylsulfonimidoyl)-1-(1H-tetrazol-5-yl)propan-1-amine]: the concentration for a half-maximal effect (EC50) was at least 1000 µM.

The same assay, now with this note: cell viability, read-out: Cell Killing EC50.
With `N=S(=O)(CCC(c1ccc(-c2ccccc2Cl)cc1)C(F)(F)F)CC[C@H](N)C(=O)O` (single isomer, unassigned) [Compound 219], the EC50 is at least 1000 µM.

With `N=[S@](=O)(CC[C@H](N)C(=O)O)CCC(O)(c1ccccc1)C(F)(F)F` (single isomer, unassigned) [Compound 346], the concentration for a half-maximal effect (EC50) is at least 1000 µM.

Consider `N=S(=O)(CCC(c1ccc(-c2ccccc2F)cc1)C(F)(F)F)CC[C@H](N)C(=O)O` (some centres unmarked) [Compound 217], for which the half-maximal effective concentration (EC50) is under 1000 µM.

On to `N=S(=O)(CCC(c1ccc(-c2ccccc2Cl)cc1)C(F)(F)F)CC[C@H](N)C(=O)O` (some centres unmarked) [Compound 220], for which the EC50 is under 1000 µM.

Regarding `N=S(=O)(CCC(c1ccc(-c2ccccc2Cl)cc1)C(F)(F)F)CC[C@H](N)C(=O)O` (some centres unmarked) [Compound 221], the EC50 was under 1000 µM.

In the case of `N=S(=O)(CCC(c1ccc(C2CC2)cc1)C(F)(F)F)CC[C@H](N)C(=O)O` (some centres unmarked) [Compound 225], the EC50 was under 1000 µM.

For the compound `N=S(=O)(CCC(c1ccc(-c2ccc(Br)cc2)cc1)C(F)(F)F)CC[C@H](N)C(=O)O` (some centres unmarked) [Compound 226], the EC50 was under 1000 µM.

With `N=S(=O)(CCC(c1ccc(-c2cn[nH]c2)cc1)C(F)(F)F)CC[C@H](N)C(=O)O` (some centres unmarked) [Compound 227], the concentration for a half-maximal effect (EC50) is at least 1000 µM.

On to `N=S(=O)(CCC(c1ccc(-c2cc[nH]n2)cc1)C(F)(F)F)CC[C@H](N)C(=O)O` (some centres unmarked) [Compound 228], for which the EC50 is at least 1000 µM.

With `N=S(=O)(CCC(c1ccc(-c2cccc(C(N)=O)c2)cc1)C(F)(F)F)CC[C@H](N)C(=O)O` (some centres unmarked) [Compound 229], the concentration for a half-maximal effect (EC50) is at least 1000 µM.

Consider `CNC(=O)c1cccc(-c2ccc(C(CCS(=N)(=O)CC[C@H](N)C(=O)O)C(F)(F)F)cc2)c1` (some centres unmarked) [Compound 230], for which the EC50 was at least 1000 µM.

As to `N=S(=O)(CCC(c1ccc(-c2ccc(C(F)F)cc2)cc1)C(F)(F)F)CC[C@H](N)C(=O)O` (some centres unmarked) [Compound 231], the EC50 was under 1000 µM.

For `N=S(=O)(CCC(c1ccc(-c2ccccc2O)cc1)C(F)(F)F)CC[C@H](N)C(=O)O` (some centres unmarked) [Compound 235], the concentration giving a half-maximal response (EC50) is under 1000 µM.

As to `CC(C)(O)c1cccc(-c2ccc(C(CCS(=N)(=O)CC[C@H](N)C(=O)O)C(F)(F)F)cc2)c1` (some centres unmarked) [Compound 241], the EC50 was at least 1000 µM.

For the compound `N=S(=O)(CCC(c1ccc(-c2cccnc2)cc1)C(F)(F)F)CC[C@H](N)C(=O)O` (some centres unmarked) [Compound 243], the EC50 is at least 1000 µM.

Regarding `N=S(=O)(CCC(c1ccc(-c2ccc(C(N)=O)nc2)cc1)C(F)(F)F)CC[C@H](N)C(=O)O` (some centres unmarked) [Compound 245], the EC50 was at least 1000 µM.

As to `Cc1ccc(-c2ccc(C(CCS(=N)(=O)CC[C@H](N)C(=O)O)C(F)(F)F)cc2)cn1` (some centres unmarked) [Compound 246], the EC50 was at least 1000 µM.

As to `Cc1nc(Cl)ccc1-c1ccc(C(CCS(=N)(=O)CC[C@H](N)C(=O)O)C(F)(F)F)cc1` (some centres unmarked) [Compound 248], the 50% effective concentration (EC50) is under 1000 µM.

For `CN1CCN(c2ccc(-c3ccc(C(CCS(=N)(=O)CC[C@H](N)C(=O)O)C(F)(F)F)cc3)cn2)CC1` (some centres unmarked) [Compound 249], the EC50 is at least 1000 µM.

`N=S(=O)(CCC(c1ccc(-c2cnc(N)nc2)cc1)C(F)(F)F)CC[C@H](N)C(=O)O` (some centres unmarked) [Compound 251]: the EC50 is at least 1000 µM.

Take `N=S(=O)(CCC(c1ccc(-c2cnc(C3CC3)nc2)cc1)C(F)(F)F)CC[C@H](N)C(=O)O` (some centres unmarked) [Compound 252]: the EC50 is at least 1000 µM.

Take `N=S(=O)(CCC(c1ccc(-c2cnc3[nH]ccc3c2)cc1)C(F)(F)F)CC[C@H](N)C(=O)O` (some centres unmarked) [Compound 253]: the concentration giving a half-maximal response (EC50) was under 1000 µM.

As for `N=S(=O)(CCC(c1ccc(-c2cnc3[nH]ncc3c2)cc1)C(F)(F)F)CC[C@H](N)C(=O)O` (some centres unmarked) [Compound 254], the concentration for a half-maximal effect (EC50) was at least 1000 µM.

As to `N=S(=O)(CCC(c1ccc(-c2ccc3cn[nH]c3c2)cc1)C(F)(F)F)CC[C@H](N)C(=O)O` (some centres unmarked) [Compound 255], the concentration for a half-maximal effect (EC50) is at least 1000 µM.

With `N=S(=O)(CCC(c1ccc(-c2ccc(Cl)s2)cc1)C(F)(F)F)CC[C@H](N)C(=O)O` (some centres unmarked) [Compound 256], the half-maximal effective concentration (EC50) is under 1000 µM.

Take `N=S(=O)(CCC(c1ccc(-c2ccsc2)cc1)C(F)(F)F)CC[C@H](N)C(=O)O` (some centres unmarked) [Compound 257]: the EC50 was under 1000 µM.

As to `N=S(=O)(CCC(c1ccc(-c2ccoc2)cc1)C(F)(F)F)CC[C@H](N)C(=O)O` (some centres unmarked) [Compound 258], the half-maximal effective concentration (EC50) is under 1000 µM.

As for `N=S(=O)(CCC(c1ccc(C2=CCNCC2)cc1)C(F)(F)F)CC[C@H](N)C(=O)O` (some centres unmarked) [Compound 259], the EC50 is at least 1000 µM.

As for `C=C(c1ccc(C(CCS(=N)(=O)CC[C@H](N)C(=O)O)C(F)(F)F)cc1)C(F)(F)F` (some centres unmarked) [Compound 260], the EC50 is at least 1000 µM.

For the compound `C=Cc1ccc(C(CCS(=N)(=O)CC[C@H](N)C(=O)O)C(F)(F)F)cc1` (some centres unmarked) [Compound 261], the 50% effective concentration (EC50) is under 1000 µM.

Take `C=C(C)c1ccc(C(CCS(=N)(=O)CC[C@H](N)C(=O)O)C(F)(F)F)cc1` (some centres unmarked) [Compound 262]: the concentration for a half-maximal effect (EC50) is under 1000 µM.

Regarding `CC(C)(O)c1ccc(C(CCS(=N)(=O)CC[C@H](N)C(=O)O)C(F)(F)F)cc1` (some centres unmarked) [Compound 263], the half-maximal effective concentration (EC50) was at least 1000 µM.

For the compound `COc1ccccc1-c1ccc(C(CCS(=N)(=O)CC[C@H](N)C(=O)O)C(F)(F)F)cc1` (some centres unmarked) [Compound 264], the EC50 is under 1000 µM.

Regarding `Cc1ccccc1-c1ccc(C(CCS(=N)(=O)CC[C@H](N)C(=O)O)C(F)(F)F)cc1` (some centres unmarked) [Compound 265], the EC50 was under 1000 µM.

For `CC(C)c1ccccc1-c1ccc(C(CCS(=N)(=O)CC[C@H](N)C(=O)O)C(F)(F)F)cc1` (some centres unmarked) [Compound 266], the EC50 is under 1000 µM.

As for `N=S(=O)(CCC(c1ccc(-c2ccccc2C(F)(F)F)cc1)C(F)(F)F)CC[C@H](N)C(=O)O` (some centres unmarked) [Compound 267], the concentration for a half-maximal effect (EC50) is under 1000 µM.

As to `COc1ccc(-c2ccc(C(CCS(=N)(=O)CC[C@H](N)C(=O)O)C(F)(F)F)cc2)c(Cl)c1` (some centres unmarked) [Compound 268], the EC50 is under 1000 µM.

In the case of `N=S(=O)(CCC(c1ccc(-c2ccc(Cl)cc2Cl)cc1)C(F)(F)F)CC[C@H](N)C(=O)O` (some centres unmarked) [Compound 269], the EC50 was under 1000 µM.

Take `N=S(=O)(CCC(c1ccc(-c2ccc(O)cc2Cl)cc1)C(F)(F)F)CC[C@H](N)C(=O)O` (some centres unmarked) [Compound 270]: the EC50 was under 1000 µM.

Take `N=S(=O)(CCC(c1ccc(-c2ccc(F)cc2Cl)cc1)C(F)(F)F)CC[C@H](N)C(=O)O` (some centres unmarked) [Compound 271]: the EC50 was under 1000 µM.

Take `C#Cc1ccc(C(CCS(=N)(=O)CC[C@H](N)C(=O)O)C(F)(F)F)cc1` (some centres unmarked) [Compound 272]: the half-maximal effective concentration (EC50) is under 1000 µM.

In the case of `N=S(=O)(CCC(c1cccc(C#Cc2ccccc2)c1)C(F)(F)F)CC[C@H](N)C(=O)O` (some centres unmarked) [Compound 273], the half-maximal effective concentration (EC50) was at least 1000 µM.

In the case of `Cc1cc(Cl)ccc1-c1ccc(C(CCS(=N)(=O)CC[C@H](N)C(=O)O)C(F)(F)F)cc1` (some centres unmarked) [Compound 275], the concentration giving a half-maximal response (EC50) was under 1000 µM.

As for `Cc1ccc(-c2ccc(C(CCS(=N)(=O)CC[C@H](N)C(=O)O)C(F)(F)F)cc2)c(Cl)c1` (some centres unmarked) [Compound 276], the EC50 is under 1000 µM.

As to `N=S(=O)(CCC(c1ccc(-c2ccc(Cl)cc2)cc1)C(F)(F)F)CC[C@H](N)C(=O)O` (some centres unmarked) [Compound 277], the 50% effective concentration (EC50) was under 1000 µM.

Regarding `Cc1cc(F)ccc1-c1ccc(C(CCS(=N)(=O)CC[C@H](N)C(=O)O)C(F)(F)F)cc1` (some centres unmarked) [Compound 278], the 50% effective concentration (EC50) was under 1000 µM.

Turning to `Cc1ccc(-c2ccc(C(CCS(=N)(=O)CC[C@H](N)C(=O)O)C(F)(F)F)cc2)c(C)c1` (some centres unmarked) [Compound 280], the EC50 was under 1000 µM.

As to `N=S(=O)(CCC(c1ccc(-c2ccc(F)cc2O)cc1)C(F)(F)F)CC[C@H](N)C(=O)O` (some centres unmarked) [Compound 281], the EC50 was under 1000 µM.

As for `N=S(=O)(CCC(c1ccc(-c2ccc(Cl)cc2O)cc1)C(F)(F)F)CC[C@H](N)C(=O)O` (some centres unmarked) [Compound 282], the 50% effective concentration (EC50) was under 1000 µM.

As to `Cc1cc(Cl)ccc1-c1cccc(C(CCS(=N)(=O)CC[C@H](N)C(=O)O)C(F)(F)F)c1` (some centres unmarked) [Compound 283], the concentration giving a half-maximal response (EC50) was at least 1000 µM.

For `Cc1ccc(-c2cccc(C(CCS(=N)(=O)CC[C@H](N)C(=O)O)C(F)(F)F)c2)c(F)c1` (some centres unmarked) [Compound 284], the EC50 is at least 1000 µM.

As for `Cc1ccc(-c2cccc(C(CCS(=N)(=O)CC[C@H](N)C(=O)O)C(F)(F)F)c2)cc1` (some centres unmarked) [Compound 285], the EC50 is at least 1000 µM.

With `Cc1cccc(-c2cccc(C(CCS(=N)(=O)CC[C@H](N)C(=O)O)C(F)(F)F)c2)c1` (some centres unmarked) [Compound 286], the half-maximal effective concentration (EC50) was at least 1000 µM.

For the compound `N=S(=O)(CCC(c1cccc(-c2cccc(F)c2)c1)C(F)(F)F)CC[C@H](N)C(=O)O` (some centres unmarked) [Compound 287], the concentration giving a half-maximal response (EC50) is at least 1000 µM.

On to `N=S(=O)(CCC(c1cccc(-c2ccc(Cl)cc2Cl)c1)C(F)(F)F)CC[C@H](N)C(=O)O` (some centres unmarked) [Compound 288], for which the EC50 is at least 1000 µM.

For `Cc1ccc(-c2cccc(C(CCS(=N)(=O)CC[C@H](N)C(=O)O)C(F)(F)F)c2)cc1F` (some centres unmarked) [Compound 290], the concentration giving a half-maximal response (EC50) was at least 1000 µM.
